This assay deals with T1, 5-enolpyruvylshikimate-3-phosphate synthase (EPSPS).
T1 construct: native enzyme in leaf extract, not purified to homogeneity; partial EPSPS2 cDNA (543-bp fragment) without Pro106 or Thr102 substitution
The assay can be described thus: EnzCheck phosphate release assay, leaf extract, log-logistic fit. The assay is classed as biochemical, Sorghum halepense. The note with it: range of estimates over seven populations without significant differences: 2.6 (GR6), 3.4 (GR1); the others only in the figure; glyphosate 0-1000 µM; 360 nm, 10 min; read-out: I50.

pIC50: −log10 of the molar value.

Regarding `O=C(O)CNCP(=O)(O)O` [glyphosate], the pIC50 was 5.47 to 5.59.

Values taken from article PMC7154863, “The First Case of Glyphosate Resistance in Johnsongrass (Sorghum halepense (L.) Pers.) in Europe” (Plants, 2020).
